Experimental data as given in US20070270358A1, “Cosmetic and/or Pharmaceutical Composition for the Treatment of the Rosacea” (priority 2004, published 2007).
Read-outs that look alike come from different tables or passages of the source.

Experiments:
human keratinocytes [1] = assay: Dosage of ROS (DCF fluorescence) after UV-induced oxidative stress; format: cell-based; conditions: for anti-radical protection percentage / fluorescence, directly proportional to the quantity of ROS (average value): after 5 minutes exposure to UV
Procedure: The substance to be tested was diluted in a salt solution to the final concentrations required. The dichlorofluorescein acetate (DCF) was diluted apart in a special buffer. The DCF reacts with the free radicals if present giving rise to a fluorescent derivative, and the fluorometry reading gives a quantity related to the presence of this substance in the cells analyzed. A sufficient number of cells (30,000 cells/well) is sown in the wells of a […]. After a pre-incubation period overnight with the different sample concentrations, the culture medium is sucked out of the wells and replaced with 500 μl of DCF solution. The plates are placed in a CO2 thermo regulator at 37° C. to incubate for 15 minutes. At this point the DCF solution is discarded. After a 5 minute period of exposure to UV rays, the oxidative stress is interrupted, and the fluorometry reading taken. The lamp used in the experiments reproduces the solar spectrum with a constant UVA emission field of between 315 and 400 nm. The emission of UVB is appropriately shielded to avoid direct cytotoxic damage to the cell cultures. The plate containing the cells is irradiated at room temperature with an intensity of 1.7 mW/cm^2 of UVA […].
Reading of the fluorometry is carried out at the excitation wave length of 485 nm and emission of 530 nm directly on the plates (Toxicol. Letters 1997-93: 47-54).
(§1) • Control negative (C−): cells not treated • Control positive (C+): cells exposed to UV without protective treatment • Samples: • cells exposed to UV in the presence of protective substances: • Vitamin C 0.1 mg/ml (anti-oxidant of comparison) • SOL.—Solution 20% dimethyl sulfone
The results are given in terms of fluorescence, that are directly proportional to the quantity of ROS
The anti-radical protection percentage offered by the substance is calculated using the following formula: […]

human keratinocytes [2] = format: cell-based
Procedure: A second test, through the determination of the vitality of the cells using the MTT method, enables evaluation of the total damage suffered by the cells (in the absence of and following oxidative stress) and the protective effect produced by the substance tested in different concentrations.
Before and following exposure to UV rays, an MTT test is carried out to evaluate the toxic impact on the cell energetic system (mitochondrions) compared with cells not protected from oxidative stress a cells not exposed to stress. The MTT test is simple, accurate and gives reproducible results. This method, originally developed by Mossman […], is based on a yellow substance in solution. The mitochondrial dehydrogenize of live cells is able to cut the tetrazolium ring causing the formation of insoluble purple coloured salts. The crystals can de dissolved in acidified isopropanol and the purple solution formed can be spectrophotometrically dosed. An increase/decrease in number of the live cells can be evaluated as corresponding to the increase or decrease in the optical absorption due to formazano salts, giving a quantification of the global cytotoxic event.
as §1
Cellular vitality as evaluated in the absence of oxidative stress (UV−) and after 5 minutes of exposure to […]
Absorption values (O.D) at 540 nm (in proportion to the number of cells). Evaluation of cellular vitality in the absence of oxidative stress

CS(C)(=O)=O [MSM SOL. 20%, dimethyl sulfone]
anti-radical protection percentage (human keratinocytes [1]; 0.003 mg/ml): 41.2%
fluorescence, directly proportional to the quantity of ROS (average value) (human keratinocytes [1]; 0.003 mg/ml): 17820
anti-radical protection percentage (human keratinocytes [1]; 0.01 mg/ml): 37.5%
fluorescence, directly proportional to the quantity of ROS (average value) (human keratinocytes [1]; 0.01 mg/ml): 18887
anti-radical protection percentage (human keratinocytes [1]; 0.03 mg/ml): 34.8%
fluorescence, directly proportional to the quantity of ROS (average value) (human keratinocytes [1]; 0.03 mg/ml): 19686
anti-radical protection percentage (human keratinocytes [1]; 0.09 mg/ml): 43.7%
fluorescence, directly proportional to the quantity of ROS (average value) (human keratinocytes [1]; 0.09 mg/ml): 17117
anti-radical protection percentage (human keratinocytes [1]; 0.28 mg/ml): 38.3%
fluorescence, directly proportional to the quantity of ROS (average value) (human keratinocytes [1]; 0.28 mg/ml): 18675
anti-radical protection percentage (human keratinocytes [1]; 0.83 mg/ml): 44.6%
fluorescence, directly proportional to the quantity of ROS (average value) (human keratinocytes [1]; 0.83 mg/ml): 16848
anti-radical protection percentage (human keratinocytes [1]; 2.5 mg/ml): 41.4%
fluorescence, directly proportional to the quantity of ROS (average value) (human keratinocytes [1]; 2.5 mg/ml): 17782
antioxidant activity: presence of ROS in keratinocyte cultures subjected to oxidative stress (human keratinocytes [1]; concentration between 0.003 and 2.5 mg/ml): significantly reduces the presence of reactive oxygen species (ROS)
cellular vitality, absorption value at 540 nm (average value) (human keratinocytes [2]; 0.003 mg/ml, after 5 minutes exposure to UV (UV+)): 3.020 O.D
cellular vitality, absorption value at 540 nm (average value) (human keratinocytes [2]; 0.01 mg/ml, after 5 minutes exposure to UV (UV+)): 2.977 O.D
cellular vitality, absorption value at 540 nm (average value) (human keratinocytes [2]; 0.03 mg/ml, after 5 minutes exposure to UV (UV+)): 2.940 O.D
cellular vitality, absorption value at 540 nm (average value) (human keratinocytes [2]; 0.09 mg/ml, after 5 minutes exposure to UV (UV+)): 2.987 O.D
cellular vitality, absorption value at 540 nm (average value) (human keratinocytes [2]; 0.28 mg/ml, after 5 minutes exposure to UV (UV+)): 2.832 O.D
cellular vitality, absorption value at 540 nm (average value) (human keratinocytes [2]; 0.83 mg/ml, after 5 minutes exposure to UV (UV+)): 2.838 O.D
cellular vitality, absorption value at 540 nm (average value) (human keratinocytes [2]; 2.5 mg/ml, after 5 minutes exposure to UV (UV+)): 2.777 O.D
cytoprotective activity: cellular vitality following exposure to UV radiation (human keratinocytes [2]; concentration between 0.003 and 2.5 mg/ml, versus non-treated keratinocytes): cellular vitality of treated Keratinocytes is greater compared with non-treated Keratinocytes

O=C1O[C@H]([C@@H](O)CO)C(O)=C1O [VIT C, Vitamin C, reference compound]
fluorescence, directly proportional to the quantity of ROS (average value) (human keratinocytes [1]; 0.1 mg/ml): 20837
cellular vitality, absorption value at 540 nm (average value) (human keratinocytes [2]; 0.1 mg/ml, after 5 minutes exposure to UV (UV+)): 2.904 O.D
cellular vitality, absorption value at 540 nm (average value) (human keratinocytes [2]; human, 0.1 mg/ml): 2.977 O.D
